In patent publication US9006450B2 (Boehringer Ingelheim International GmbH, priority 2010, dated 2015) one finds IC50 data, which are given here for 68 compounds.

The structures appear in SMILES notation.

The target of this test is T1, human ACC2 (Homo sapiens, UniProt O00763).
T1 construct: made in house; host or cells: insect cells (baculoviral expression system)
T1 sequence (O00763 129-2458 limits assumed): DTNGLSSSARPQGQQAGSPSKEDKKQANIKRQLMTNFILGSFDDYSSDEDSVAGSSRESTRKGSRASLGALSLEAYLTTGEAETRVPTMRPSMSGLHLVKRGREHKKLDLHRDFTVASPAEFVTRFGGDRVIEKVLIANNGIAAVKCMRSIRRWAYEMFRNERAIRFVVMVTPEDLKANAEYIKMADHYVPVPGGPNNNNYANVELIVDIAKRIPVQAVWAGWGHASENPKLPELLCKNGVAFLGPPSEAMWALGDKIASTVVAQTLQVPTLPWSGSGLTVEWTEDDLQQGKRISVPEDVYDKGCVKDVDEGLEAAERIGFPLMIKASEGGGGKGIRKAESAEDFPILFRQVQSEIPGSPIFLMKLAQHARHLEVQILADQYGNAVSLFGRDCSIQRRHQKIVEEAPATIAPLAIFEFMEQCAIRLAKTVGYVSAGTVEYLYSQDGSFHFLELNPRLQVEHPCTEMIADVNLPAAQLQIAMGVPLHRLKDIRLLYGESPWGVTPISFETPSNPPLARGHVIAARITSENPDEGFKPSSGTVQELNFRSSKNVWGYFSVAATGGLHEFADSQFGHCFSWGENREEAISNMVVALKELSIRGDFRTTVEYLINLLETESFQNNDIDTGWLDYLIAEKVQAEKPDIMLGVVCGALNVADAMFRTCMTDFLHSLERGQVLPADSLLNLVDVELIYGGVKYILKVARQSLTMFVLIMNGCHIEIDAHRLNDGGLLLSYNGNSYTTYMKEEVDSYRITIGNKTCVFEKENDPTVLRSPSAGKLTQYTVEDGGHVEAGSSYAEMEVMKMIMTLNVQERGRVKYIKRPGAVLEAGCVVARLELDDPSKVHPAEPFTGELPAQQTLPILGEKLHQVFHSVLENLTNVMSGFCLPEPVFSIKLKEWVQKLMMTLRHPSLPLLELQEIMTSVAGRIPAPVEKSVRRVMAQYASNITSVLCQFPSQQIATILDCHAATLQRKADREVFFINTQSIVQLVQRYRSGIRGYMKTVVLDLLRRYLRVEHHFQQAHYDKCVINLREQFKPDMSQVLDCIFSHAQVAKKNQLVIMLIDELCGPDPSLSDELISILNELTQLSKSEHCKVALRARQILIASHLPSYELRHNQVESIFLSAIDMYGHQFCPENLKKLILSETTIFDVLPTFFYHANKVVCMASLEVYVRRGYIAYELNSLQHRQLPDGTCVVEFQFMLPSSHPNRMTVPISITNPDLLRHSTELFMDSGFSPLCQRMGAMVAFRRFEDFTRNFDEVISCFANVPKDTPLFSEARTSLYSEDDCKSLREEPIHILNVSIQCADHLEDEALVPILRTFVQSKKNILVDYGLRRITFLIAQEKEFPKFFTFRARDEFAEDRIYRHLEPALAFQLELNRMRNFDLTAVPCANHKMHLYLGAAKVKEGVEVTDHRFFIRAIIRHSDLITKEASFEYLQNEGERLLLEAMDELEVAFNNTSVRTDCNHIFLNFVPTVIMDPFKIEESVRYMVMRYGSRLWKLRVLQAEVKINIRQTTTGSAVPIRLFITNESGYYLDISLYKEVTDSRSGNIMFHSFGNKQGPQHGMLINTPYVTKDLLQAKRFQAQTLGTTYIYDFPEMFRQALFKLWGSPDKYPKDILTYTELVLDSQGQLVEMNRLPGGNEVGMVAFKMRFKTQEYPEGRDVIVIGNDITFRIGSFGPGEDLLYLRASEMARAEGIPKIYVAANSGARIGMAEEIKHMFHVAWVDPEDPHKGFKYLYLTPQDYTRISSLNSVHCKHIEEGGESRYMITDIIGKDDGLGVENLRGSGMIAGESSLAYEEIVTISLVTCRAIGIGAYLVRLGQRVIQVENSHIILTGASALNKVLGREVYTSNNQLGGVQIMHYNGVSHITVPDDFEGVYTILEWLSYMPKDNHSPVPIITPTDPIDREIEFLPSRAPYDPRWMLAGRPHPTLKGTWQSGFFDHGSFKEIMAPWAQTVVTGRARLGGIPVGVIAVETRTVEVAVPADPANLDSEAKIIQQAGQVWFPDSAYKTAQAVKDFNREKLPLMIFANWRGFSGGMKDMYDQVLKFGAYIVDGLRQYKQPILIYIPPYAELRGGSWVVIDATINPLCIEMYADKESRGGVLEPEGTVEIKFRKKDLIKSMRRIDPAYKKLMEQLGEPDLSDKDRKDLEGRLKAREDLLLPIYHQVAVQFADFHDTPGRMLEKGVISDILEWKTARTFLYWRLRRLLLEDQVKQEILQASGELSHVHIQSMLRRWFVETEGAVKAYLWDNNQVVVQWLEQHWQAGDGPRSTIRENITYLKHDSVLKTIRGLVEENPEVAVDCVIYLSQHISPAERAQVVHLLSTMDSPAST
Description: ACC2 assay, spectrophotometric 384 well assay (NADH-linked, coupled lactate dehydrogenase/pyruvate kinase). The note with it: ACC2 assay, hACC2 construct lacking 128 N-terminal amino acids, 25° C., 340 nm; read-out: IC50. The class given is biochemical. An outline of the steps:
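Human ACC2 lacking N-terminal 128 aa, baculovirus/insect-cell expressed, anion-exchange purified; 100 mM Tris pH 7.5, 10 mM citrate, 25 mM KHCO3, 1% DMSO. Started with 200 μM NADH and acetyl-CoA plus 500 μM ATP; PK/LDH-coupled A340 decrease read 15 min at 25° C. IC50 by nonlinear fit of low-control-subtracted slopes.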
For `CC(=O)N[C@@H](C)c1ccc(C2CCN(c3ccnc(C(C)C)n3)CC2)cc1` [Example 4.25], the IC50 is 0.23 µM.

For the compound `CC(=O)N[C@@H](C)c1ccc(C2CCN(c3ccnc(C(F)(F)F)n3)CC2)cc1` [Example 4.26], the IC50 was determined as 0.29 µM.

In the case of `CCOc1cccc(N2CCC(c3ccc([C@H](C)NC(C)=O)cc3)CC2)n1` [Example 4.27], the IC50 amounted to 0.33 µM. As to `CC(=O)N[C@@H](C)c1ccc(C2CCN(c3ncc4nc(-c5ccccc5)oc4n3)CC2)cc1` [Example 4.28], the IC50 was 0.06 µM. Consider `CC(=O)N[C@@H](C)c1ccc(C2CCN(c3ncc(Cl)cn3)CC2)cc1` [Example 4.29], for which the IC50 turned out to be 1.7 µM. `CC(=O)N[C@@H](C)c1ccc(C2CCN(c3noc4ccccc34)CC2)cc1` [Example 4.30]: the IC50 turned out to be 1.1 µM.

As for `COc1cc2ccnc(N3CCC(c4ccc([C@H](C)NC(C)=O)cc4)CC3)c2cc1OC` [Example 4.31], the IC50 was 2 µM. The figure for `CC(=O)N[C@@H](C)c1ccc(C2CCN(c3nc4ccccc4nc3C)CC2)cc1` [Example 4.32] is 2.3 µM; for `COc1cnc(N2CCC(c3ccc([C@H](C)NC(C)=O)cc3)CC2)nc1` [Example 4.33] it is 0.51 µM; for `CC(=O)Nc1cnc(N2CCC(c3ccc([C@H](C)NC(C)=O)cc3)CC2)nc1` [Example 4.34] it is 9.5 µM. `CCCc1cnc(N2CCC(c3ccc([C@H](C)NC(C)=O)cc3)CC2)nc1` [Example 4.35]: the IC50 amounted to 0.51 µM. The result for `COC(=O)c1cnc(N2CCC(c3ccc([C@H](C)NC(C)=O)cc3)CC2)nc1` [Example 4.36] reads 1.2 µM; that for `CC(=O)N[C@@H](C)c1ccc(C2CCN(c3ncc(-c4ccc(Cl)cc4)cn3)CC2)cc1` [Example 4.37], 0.3 µM; that for `CC(=O)N[C@@H](C)c1ccc(C2CCN(c3ncc(C(C)(C)C)cn3)CC2)cc1` [Example 4.38], 0.44 µM.

As to `CC(=O)N[C@@H](C)c1ccc(C2CCN(c3ncc([N+](=O)[O-])cn3)CC2)cc1` [Example 4.39], the IC50 worked out at 1.9 µM. The result for `CC(=O)N[C@@H](C)c1ccc(C2CCN(c3ncc(F)cn3)CC2)cc1` [Example 4.40] reads 0.93 µM; that for `COc1ccc(-c2cnc(N3CCC(c4ccc([C@H](C)NC(C)=O)cc4)CC3)nc2)cc1` [Example 4.41], 0.1 µM. The result for `CCc1cnc(N2CCC(c3ccc([C@H](C)NC(C)=O)cc3)CC2)nc1` [Example 4.42] reads 0.53 µM; that for `CC(=O)N[C@@H](C)c1ccc(C2CCN(c3ncc(I)cn3)CC2)cc1` [Example 4.43, (S)—N-(1-{4-[1-(5-iodopyrimidin-2-yl)-piperidin-4-yl]-phenyl}-ethyl)-acetamide], 0.41 µM; that for `CC(=O)N[C@@H](C)c1ccc(C2CCN(c3ncc(Br)cn3)CC2)cc1` [Example 4.44], 0.65 µM. The figure for `CC(=O)N[C@@H](C)c1ccc(C2CCN(c3ncccn3)CC2)cc1` [Example 4.45] is 1.5 µM; for `C[C@H](NC(=O)C1CC1)c1ccc(C2CCN(c3ncc4nc(-c5ccccc5)oc4n3)CC2)cc1` [Example 4.46] it is 0.21 µM. On to `C[C@H](NC(=O)N(C)C)c1ccc(C2CCN(c3ncc4nc(-c5ccccc5)oc4n3)CC2)cc1` [Example 4.47], for which the IC50 stood at 0.08 µM. As to `COC(=O)N[C@@H](C)c1ccc(C2CCN(c3ncc4nc(-c5ccccc5)oc4n3)CC2)cc1` [Example 4.48], the IC50 stood at 0.13 µM. The result for `CCCOc1cnc(N2CCC(c3ccc([C@H](C)NC(C)=O)cc3)CC2)nc1` [Example 4.49] reads 0.21 µM.

On to `CCOc1cnc(N2CCC(c3ccc([C@H](C)NC(C)=O)cc3)CC2)nc1` [Example 4.50], for which the IC50 is 0.46 µM.

Regarding `CC(=O)N[C@@H](C)c1ccc(C2CCN(c3ncc(OC(C)C)cn3)CC2)cc1` [Example 4.51], the IC50 was 0.31 µM.

For the compound `CC(=O)N[C@@H](C)c1ccc(C2CCN(c3ncc(OCC4CC4)cn3)CC2)cc1` [Example 4.52], the IC50 was 0.53 µM.

Take `CC(=O)N[C@@H](C)c1ccc(C2CCN(c3ncc(OCC4CC4(F)F)cn3)CC2)cc1` (some centres unmarked) [Example 4.53]: the IC50 amounted to 0.16 µM. Regarding `CCC(=O)N[C@@H](C)c1ccc(C2CCN(c3ncc(C4CC4)cn3)CC2)cc1` [Example 4.54], the IC50 worked out at 1.8 µM. The figure for `COC(=O)c1cnc(N2CCC(c3ccc([C@H](C)NC(C)=O)cc3)CC2)s1` [Example 4.101] is 2.7 µM; for `CC(=O)N[C@@H](C)c1ccc(C2CCN(c3ncc(C(C)(C)C)s3)CC2)cc1` [Example 4.102] it is 0.47 µM. Take `CCCCOc1ccc(N2CCC(c3ccc([C@H](C)NC(C)=O)cc3)CC2)c(C#N)c1` [Example 4.201]: the IC50 worked out at 0.06 µM.

On to `CCC(C)Oc1ccc(N2CCC(c3ccc([C@H](C)NC(C)=O)cc3)CC2)c(C#N)c1` (some centres unmarked) [Example 4.202], for which the IC50 stood at 0.15 µM. With `C[C@H](NC(=O)C1CC1)c1ccc(C2CCN(c3ncc4nc(-c5ccsc5)oc4n3)CC2)cc1` [Example 4.301], the IC50 is 0.39 µM.

`C[C@H](NC(=O)N(C)C)c1ccc(C2CCN(c3ncc4nc(-c5ccsc5)oc4n3)CC2)cc1` [Example 4.302]: the IC50 amounted to 0.2 µM.

In the case of `C[C@H](NC(=O)C1CC1)c1ccc(C2CCN(c3ncc(C4CC4)cn3)CC2)cc1` [Example 4.303], the 50% inhibitory concentration (IC50) amounted to 15.6 µM. With `C[C@H](NC(=O)N(C)C)c1ccc(C2CCN(c3ncc(C4CC4)cn3)CC2)cc1` [Example 4.304], the IC50 was determined as 0.24 µM. With `CCCOc1cnc(N2CCC(c3ccc([C@H](C)NC(=O)C4CC4)cc3)CC2)nc1` [Example 4.305], the IC50 is 1.4 µM. On to `CCCOc1cnc(N2CCC(c3ccc([C@H](C)NC(=O)N(C)C)cc3)CC2)nc1` [Example 4.306], for which the IC50 came out at 0.12 µM. Turning to `CCOc1ccc(N2CCC(c3ccc([C@H](C)NC(C)=O)cc3)CC2)nc1` [Example 5.1, (S)—N-{1-[4-(5′-Ethoxy-3,4,5,6-tetrahydro-2H-[1,2′]bipyridinyl-4-yl)-phenyl]-ethyl}-acetamide], the IC50 was 0.2 µM.

On to `COc1ccc(N2CCC(c3ccc([C@H](C)NC(C)=O)cc3)CC2)nc1` [Example 5.2], for which the IC50 was 0.33 µM. The result for `CCCOc1ccc(N2CCC(c3ccc([C@H](C)NC(C)=O)cc3)CC2)nc1` [Example 5.3] reads 0.13 µM; that for `CC(=O)N[C@@H](C)c1ccc(C2CCN(c3ccc(OCC(C)C)cn3)CC2)cc1` [Example 5.4], 0.09 µM; that for `CC(=O)N[C@@H](C)c1ccc(C2CCN(c3ncc4nc(-c5ccsc5)oc4n3)CC2)cc1` [Example 5.5], 0.02 µM. On to `CC(=O)N[C@@H](C)c1ccc(C2CCN(c3ncc4nc(-c5ccc(C)s5)oc4n3)CC2)cc1` [Example 5.6], for which the IC50 stood at 0.06 µM. The result for `CC(=O)N[C@@H](C)c1ccc(C2CCN(c3ncc4nc(-c5cccs5)oc4n3)CC2)cc1` [Example 5.7] reads 0.05 µM; that for `CC(=O)N[C@@H](C)c1ccc(C2CCN(c3ccc(C4(S(C)(=O)=O)CC4)cn3)CC2)cc1` [Example 5.8], 19.2 µM.

As to `CNC(=O)c1csc(N2CCC(c3ccc([C@H](C)NC(C)=O)cc3)CC2)n1` [Example 5.9], the IC50 came out at 25.4 µM.

Take `CC(=O)N[C@@H](C)c1ccc(C2CCN(c3ncc4nc(-c5ccncc5)oc4n3)CC2)cc1` [Example 5.10]: the IC50 came to 0.1 µM.

Consider `CC(=O)N[C@@H](C)c1ccc(C2CCN(c3nccc(C(F)(F)F)c3F)CC2)cc1` [Example 5.11], for which the IC50 came out at 0.15 µM. `CC(=O)N[C@@H](C)c1ccc(C2CCN(c3ccc(I)cn3)CC2)cc1` [Example 5.12]: the IC50 is 0.22 µM. Turning to `CC(=O)N[C@@H](C)c1ccc(C2CCN(c3cc(Cl)ccn3)CC2)cc1` [Example 5.13], the IC50 is 3 µM. For `CCOC(=O)c1cc(C#N)c(N2CCC(c3ccc([C@H](C)NC(C)=O)cc3)CC2)nc1C(F)(F)F` [Example 5.15], the IC50 came to 4.9 µM. The result for `CC(=O)N[C@@H](C)c1ccc(C2CCN(c3ncc(C(F)(F)F)cc3Cl)CC2)cc1` [Example 5.16] reads 0.26 µM; that for `CC(=O)N[C@@H](C)c1ccc(C2CCN(c3cc(I)ccn3)CC2)cc1` [Example 5.17], 1.2 µM. The result for `CC(=O)N[C@@H](C)c1ccc(C2CCN(c3cccc(C#N)n3)CC2)cc1` [Example 5.19] reads 1 µM. Consider `CC(=O)N[C@@H](C)c1ccc(C2CCN(c3nc(-c4ccccc4)cs3)CC2)cc1` [Example 5.20], for which the IC50 amounted to 1.2 µM. The figure for `CC(=O)N[C@@H](C)c1ccc(C2CCN(c3ccc(C(=O)C4CC4)cn3)CC2)cc1` [Example 5.21] is 0.86 µM; for `CC(=O)N[C@@H](C)c1ccc(C2CCN(c3nc(C)cs3)CC2)cc1` [Example 5.22] it is 2.3 µM; for `CC(=O)N[C@@H](C)c1ccc(C2CCN(c3ccc(Br)c(C)n3)CC2)cc1` [Example 5.23] it is 0.42 µM.

For `COc1ccc2nc(N3CCC(c4ccc([C@H](C)NC(C)=O)cc4)CC3)ccc2c1` [Example 5.24], the IC50 was 0.99 µM. Turning to `CC(=O)N[C@@H](C)c1ccc(C2CCN(c3ccc(-c4nc5ccccc5[nH]4)cn3)CC2)cc1` [Example 5.25], the IC50 is 2.4 µM. The result for `CC(=O)N[C@@H](C)c1ccc(C2CCN(c3ccnc(C)n3)CC2)cc1` [Example 5.26] reads 9 µM.

In the case of `CC(=O)N[C@@H](C)c1ccc(C2CCN(c3ccc4c(n3)C(=O)CC4)CC2)cc1` [Example 5.27], the IC50 was found to be 5.2 µM.

As for `CC(=O)N[C@@H](C)c1ccc(C2CCN(c3cc(C#N)ccn3)CC2)cc1` [Example 5.28], the IC50 was 8 µM. For `CCOC(=O)c1ccnc(N2CCC(c3ccc([C@H](C)NC(C)=O)cc3)CC2)c1C` [Example 5.29], the IC50 is 0.17 µM. The result for `CC(=O)N[C@@H](C)c1ccc(C2CCN(c3ccc(C(=O)Nc4ccccc4)cn3)CC2)cc1` [Example 5.30] reads 0.18 µM.
